Results as given in patent EP0008186A1, “Cyclic diamides, a process for their preparation and their pharmaceutical compositions” (BEECHAM GROUP PLC, priority 1978, dated 1980).

Columns and labels:
Type in all cases: in vivo
rat = experiment: Anti-ulcer activity: inhibition of indomethacin induced gastric damage; settings: gastric damage score 1-9; 50mg/kg orally 30 minutes prior to 15mg/kg indomethacin subcutaneously; sacrificed 4 hours later; vehicle 4.57 ± 0.69; p <0.01 (Mann Witney)
Description: Anti-ulcer activity was assessed by the inhibition of indomethacin induced gastric damage in the rat according to the method of Eleghe (1974) Israeli J. Med. Sci. 10 1451. Rats were starvedovernight given 15mg/kg indomethacin subcutaneously and sacrificed 4 hours later. Stomachs were reflated with n. saline, cut along the greater curvature pinned out and scored for gastric damage by the following system: • Score 1 - 3 - according to degree of erythema and slight haemorrhage. • Score 4 - 6 - according to degree of mucosal erosion. • Score 7 - 9 - according to depth of gastric damage.
Groups of 7 rats were used for each treatment and the test compound or vehicle were administered 30 minutes prior to giving the indomethacin. Dose of test compound was 50mg/kg orally and control groups receiving vehicle only were set up simultaneously. Mean values for each treatment were obtained using the above scoring system and the Mann Witney test applied for significance of difference between the values obtained with the treatments.

conscious guinea pigs = experiment: Herxheimer test: protection against histamine aerosol induced bronchoconstriction; settings: administered by aerosol or by oral administration, mean of several experiments
Description: • 1. The compounds were examined for their ability to inhibit 5-hydroxytryptamine or histamine induced bronchoconstriction in the anaesthetised, artifically respired guinea pig (Konzett-Rossler preparation). The compounds were administered intravenously. The results are shown in Table A. [formula] • 2. Compound 3 was also examined for its ability to protect conscious guinea pigs against bronchoconstriction induced by an histamine aerosol (Herxheimer test). In these experiments the compound was administered by aerosol or by oral administration. The results are the mean of several experiments. Compound 3 was active at 10 mg/kg.

[1] = test system: anaesthetised, perfused rat stomach preparation; experiment: Inhibition of pentagastrin-stimulated gastric acid secretion (Ghosh and Schild preparation); settings: i.v.
Description: The compounds were examined for their ability to inhibit pentagastrin-stimulated gastric acid secretion in the anaesthetised, perfused rat stomach preparation (Ghosh and Schild preparation). The compounds were administered intravenously.

Row | SMILES | Test Mean Score ± S.E. of Mean (rat) | active at (protection against bronchoconstriction induced by an histamine aerosol) (conscious guinea pigs) | inhibited gastric acid secretion at [1]
1 | CCCCC(C)C(C)(O)CCN1C(=O)CN(C)C(=O)C1CCCCCCC(=O)OC (stereo not shown) [Compound 3] | 0.71 ± 0.42 (p <0.01) | 10 mg/kg | 0.2 mg/kg
2 | COC(=O)CCCCCCC1C(=O)N[C@@H](C)C(=O)N1CCC(C)(O)C1CCCCC1 (stereo partly shown) [Compound 9] |  |  | 0.25 mg/kg
